According to patent US6368803B1, “Detection of nucleic acids by target-catalyzed formation” (Dade Behring Inc., priority 1994, dated 2002):
Values joined by “and” are separate entries in the source; they are usually repeats but may differ in a detail not shown here. Equal values may be shown once. {32P} = terminal 32P phosphate radiolabel

Columns and labels:
[1] = system: single stranded target DNA (M13mp19); assay: Target-catalyzed isothermal 5'-nuclease cleavage of 5'-32P-labeled probe; fold amplification by gel electrophoresis and liquid scintillation; type: biochemical
Protocol: Probe 2, the unlabeled probe, was designed to anneal to the target DNA 3' to, and contiguous with, the site at which the labeled probe annealed to the target DNA. […] However, good results were obtained in the absence of DATP. The reaction mixture was incubated at 72° C. and accumulation of product, a mononucleotide, namely, 5'^32P-C-OH, was determined by visualization using autoradiography following polyacrylamide gel electrophoresis. The fold of amplification was determined by liquid scintillation spectrometry of excised reaction products. A 10^5 fold amplification was observed. […] The product of this reaction was a dinucleotide, namely, 5'^32P-TC-OH (SEQ ID NO:4), that represented a 10^5-fold amplification. The above reaction protocol was repeated with different temperatures and different concentrations of reagents. All of the reactions, including those mentioned above, were carried out for a period of 3 hours. The following table summarizes the reagents and reaction parameters and the results obtained during the optimization procedure. The reaction protocol described in Example 1 was repeated using the following probes in place of Probe 1 or Probe 3: […]

[2] = system: Probe 5 hybridized to target DNA (M13mp19); assay: Cleavage of Probe 5 on target DNA using six different DNA polymerases with 5'-nuclease activity; type: biochemical; details: 2×10^9 target molecules; Probe 5 1 micromolar; three hours; 72 °C; 20-nucleotide fragment
Protocol: Probe 2, the unlabeled probe, was designed to anneal to the target DNA 3' to, and contiguous with, the site at which the labeled probe annealed to the target DNA. […] However, good results were obtained in the absence of DATP. The reaction protocol described in Example 1 was repeated using 2×10^9 target molecules and Probe 5 (see Example 2) at a concentration of 1 micromolar in place of Probe 1. The reactions were conducted for three hours at a temperature of 72° C. using one of six different DNA polymerases, namely, AmpliTaq DNA polymerase, […] polymerase (Epicentre), Tfl(TM) DNA polymerase (Epicentre), Ultra Therm(TM) DNA polymerase (Bio/Can Scientific), […] polymerase (Amresco) and Panozyme(TM) DNA polymerase. The product of the reaction was a 20-nucleotide fragment (see Example 2). The following is a summary of the results obtained.

[3] = probe 1 μM, target number 10^9, Taq 7.5 units, 72 °C, increase MgCl2 (7.5 mM), 3 hours
[4] = probe 10 uM, 2×10^8 target molecules, Probe 2 1 uM, 7.5 units AmpliTaq, 72 °C, 7.5 mM MgCl2, 100 uM dATP, 3 hours
[5] = probe 10 μM, target number 10^8, Taq 7.5 units, 74 °C, increase MgCl2 (7.5 mM), 3 hours
[6] = probe 10 μM, target number 10^9, Taq 7.5 units, 74 °C, increase MgCl2 (7.5 mM), 3 hours

“5′GAT-TAG-GAT-TAG-GAT-TAG-TCG-TGG-GAA-CAA-ACG-GCG-GAT3′ (GATTAGGATTAGGATTAGTCGTGGGAACAAACGGCGGAT; DNA, 5' {32P}, backbone and methylation of C not given here) [Probe 5, 39 nucleotides with 19 nucleotides at its 5′-end not complementary to the target DNA]” was tested, and the Fold amplification ([1]; Example 1 protocol, probe concentration not given, product intact 20 nucleotide fragment) was 1.5×10^4 fold.
“5′TTA-TTT-CGT-GGG-AAC-AAA-CGG-CGG-AT3′ [Probe 4]” was tested, and the Fold amplification ([1]; Example 1 protocol, probe 1 micromolar, product intact seven nucleotide fragment) was 1.5×10^4 fold.
“5′ CGT-GGG-AAC-AAA-CGG-CGG-AT3′ (CGTGGGAACAAACGGCGGAT; DNA, 5' {32P}, backbone and methylation of C not given here) [Probe 1, 20-base oligonucleotide fully complementary to the target DNA with label on the 5′-nucleotide]” was tested, and the Fold amplification ([1]; probe 1 μM, target number 10^8, Taq 7.5 units, 72 °C, add dATP (100 μM), 3 hours) was 1.0 × 10^4 fold, the Fold amplification ([1]; probe 1 μM, target number 10^9, Taq 2.5 units, 72 °C, buffer as described, 1.5 mM MgCl2, 3 hours) was 1.8 × 10^3 fold and the Fold amplification ([1]; probe 1 μM, target number 10^9, Taq 7.5 units, 72 °C, add dATP (100 μM), 3 hours) was 1.4 × 10^3 fold. The Fold amplification ([1]; probe 1 μM, target number 10^9, Taq 7.5 units, 72 °C, buffer as described, 1.5 mM MgCl2, 3 hours) was 2.0 × 10^3 fold, the Fold amplification [1, 3] was 9.7 × 10^3 fold and 9.3 × 10^3 fold and the Fold amplification ([1]; probe 1 μM, target number 10^10, Taq 2.5 units, 72 °C, buffer as described, 1.5 mM MgCl2, 3 hours) was 8.8 × 10^2 fold. The Fold amplification [1, 4] was 10^5 fold, the Fold amplification ([1]; probe 10 μM, target number 10^8, Taq 7.5 units, 72 °C, add dATP (100 μM), 3 hours) was 3.6 × 10^4 fold and the Fold amplification [1, 5] was 1.1 × 10^5 fold. The Fold amplification ([1]; probe 10 μM, target number 10^9, Taq 7.5 units, 72 °C, add dATP (100 μM), 3 hours) was 1.4 × 10^4 fold and the Fold amplification [1, 6] was 3.7 × 10^4 fold.
In the case of “5′TCG-TGG-GAA-CAA-ACG-GCG-GAT3′ (TCGTGGGAACAAACGGCGGAT; DNA, 5' {32P}, backbone and methylation of C not given here) [Probe 3, 21 nucleotides withone base at the 5′-end not complementary to the target DNA]”, the Fold amplification ([1]; probe 1 μM, target number 10^8, Taq 7.5 units, 72 °C, increase MgCl2 (7.5 mM), 3 hours) is reported as 2.6 × 10^4 fold, the Fold amplification [1, 3] is reported as 9.9 × 10^3 fold and the Fold amplification [1, 4] is reported as 10^5 fold. For the same molecule, the Fold amplification [1, 5] was 1.0 × 10^5 fold and the Fold amplification [1, 6] was 4.6 × 10^4 fold.
With “AmpliTaq: Taq DNA polymerase from Perkin-Elmer Corporation with 5′-nuclease activity” the “Fragment (picomoles)” value [2] was 32 picomoles.
Nc1ncnc2c1ncn2[C@H]1C[C@H](O)[C@@H](COP(=O)(O)OP(=O)(O)OP(=O)(O)O)O1 [dATP, reference compound] was tested, and the “effect on rate of cleavage by the polymerase” value ([1]; 100 uM in buffer, AmpliTaq DNA polymerase) was “enhance the rate of cleavage”.
